Results on ten compounds are retold here after PubChem BioAssay (NCI).

Values joined by “and” are separate entries in the source; they are usually repeats but may differ in a detail not shown here. Identical values can stand only once.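 Results reflect a 48-hour exposure of cells in 96-well plates to compound at five concentrations. GI50 marks 50% less growth. TGI: total growth inhibition.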 Where only a bound is given, the exact number is not on record here.

Experiment in all cases: inhibition of tumour cell growth, NCI panel, 48 h
Assay [1] has as its system CCRF-CEM leukemia.
Assay [2] deals with HOP-92 NSCLC.
Assay [3] has as its system K-562 leukemia.
The subject of assay [4] is LOX IMVI melanoma.
Assay [5] deals with NCI-H460 lung.
Assay [6] has as its system RPMI-8226 leukemia.
In assay [7] the test system is SN12C renal.
Assay [8] concerns SNB-19 CNS.
In assay [9] the test system is SW-620 colon.
The subject of assay [10] is UACC-62 melanoma.

As to `O=c1[nH]cnc2c1ncn2CCCCO`, the TGI in [1], in [2], in [3], in assay [4], in assay [5] and in assay [6] was over 100000 nM throughout. The TGI in assay [7], in assay [8], in [9] and in assay [10] was over 100000 nM in each case.
With `COc1cc2nncc(SCc3ccc(Cl)c(Cl)c3)c2cc1OC`, the TGI in assay [1], in assay [2], in assay [3], in [4], in assay [5] and in assay [6] was over 100000 nM throughout. Further, the TGI in assay [7], in assay [8], in assay [9] and in [10] was over 100000 nM each time.
Regarding `CC(C)c1cccc(C(C)C)c1NC(=O)C(=O)C1SC(=S)NC1=O` (centres undefined), the TGI in assay [1], in [2], in assay [3], in [4], in assay [5] and in assay [6] was over 100000 nM each time. Also, the TGI in assay [7], in assay [8], in assay [9] and in assay [10] was over 100000 nM throughout.
In the case of `O=C1/C(=C\c2ccccc2)c2ccccc2N1/N=C\c1ccccc1`, the TGI in [1], in [2], in assay [3], in assay [4], in assay [5] and in assay [6] was over 100000 nM throughout. Besides, the TGI in assay [7], in assay [8], in [9] and in [10] was over 100000 nM each time.
`O=c1[nH]nc(-c2ccccc2)c2c(-c3ccccc3)onc12`: the GI50 in assay [1] was 3690 nM; in assay [2], 933 nM; in assay [3] it was 385 nM; in assay [4], 877 nM; in [5] it was 383 nM; in assay [6], 474 nM. For the same compound, the GI50 in [7] is 748 nM; in assay [8], 11200 nM; in [9] it was 319 nM; in [10], 430 nM. Besides, the TGI in assay [1] was over 100000 nM; in [2], over 58300 nM; in [3] it was over 100000 nM; in assay [4], over 100000 nM; in assay [5], over 62600 nM; in assay [6], over 55400 nM. Further, the TGI in assay [7], in [8], in [9] and in assay [10] was over 100000 nM throughout.
For the compound `Cc1cccc(N=C2NC(=O)C(CC(=O)Nc3ccccc3Cl)S2)c1` (centres undefined), the TGI in assay [1], in [2], in assay [3], in assay [4], in assay [5] and in assay [6] was over 100000 nM in each case. The TGI in assay [7], in assay [8], in [9] and in [10] was over 100000 nM in each case.
Turning to `CCc1c2c(nc3ccc(OCc4ccc(B5OC(C)(C)C(C)(C)O5)cc4)cc13)-c1cc3c(c(=O)n1C2)COC(=O)[C@]3(O)CC`, the GI50 in assay [1] was under 10 nM; in assay [2], 37.8 nM; in [3], 56.2 nM; in assay [4], under 10 nM; in assay [5], 12.5 nM; in assay [6] it was 312 nM. Also, the GI50 in assay [7] was under 10 nM; in [8], under 10 nM; in assay [9], 25.8 nM; in assay [10], under 10 nM. Moreover, the TGI was over 100000 nM in [1]; 963 nM in assay [2]; over 100000 nM in assay [3]; 355 nM in [4]; 1240 nM in assay [5]; over 100000 nM in assay [6]. In addition, the TGI in assay [7] is over 100000 nM; in [8], over 100000 nM; in assay [9], over 100000 nM; in [10] it was 186 nM.
As for `O=C1NN=CN2C(=O)CCC12` (centres undefined), the TGI in [1], in [2], in assay [3], in assay [4], in assay [5] and in assay [6] was over 100000 nM each time. Besides, the TGI in [7], in [8], in assay [9] and in [10] was over 100000 nM in each case.
Consider `Nc1nc(Cl)nc2c1ncn2[C@@H]1O[C@H](COS(N)(=O)=O)[C@@H](O)[C@H]1O`, for which the GI50 in assay [1] was 15.9 nM and 27 nM; in assay [2], 15.9 nM and 20.6 nM; in assay [3], 17 nM and 19.9 nM; in [4], 18.1 nM and 23.1 nM; in [5], 30.6 nM and 30.5 nM; in assay [6], 25.1 nM and 25.5 nM. For the same compound, the GI50 in assay [7] was 3.77 nM; in [8], 3.65 nM; in assay [9], 25.6 nM and 31.2 nM; in assay [10], 19 nM and 21.7 nM. Moreover, the TGI in assay [1] is 101 nM; in [2], 45.4 nM and 56 nM; in assay [3], 118 nM; in assay [4], 35.6 nM and 55.2 nM; in assay [5], 104 nM and 108 nM; in [6], 97.5 nM and 72 nM. In addition, the TGI is 41.7 nM and 86.8 nM in [7]; 32.3 nM and 46.5 nM in assay [8]; 44 nM and 56.1 nM in assay [10].
Consider `CCCCN(CCCC)CCC(O)c1cc2ccc(C(F)(F)F)cc2c2cc(C(F)(F)F)ccc12` (centres undefined), for which the GI50 in assay [1] is 2960 nM; in [2], 1490 nM; in [3] it was 2060 nM; in assay [4], 1660 nM; in [5], 1840 nM; in [6], 2280 nM. For the same compound, the GI50 in [7] was 3840 nM; in [8] it was 3920 nM; in assay [9] it was 1760 nM; in assay [10], 2490 nM. In addition, the TGI in [1] turned out to be 8960 nM; in assay [2], 4260 nM; in [3], 5590 nM; in [4], 3630 nM; in assay [5] it was 4090 nM; in [6], 6170 nM. Moreover, the TGI stood at 14600 nM in [7], 15300 nM in assay [8], 5130 nM in [9] and 6530 nM in assay [10].
